For 13 compounds, IC50 results are on record in patent US20250296940A1, “ANNULATED 2-AMINO-3-CYANO THIOPHENES AND DERIVATIVES FOR THE TREATMENT OF CANCER” (Boehringer Ingelheim Int'l GmbH Corp., priority 2021, published 2025).

Bounds are passed on as bounds.

In assay [1] the target is T1, protein-protein interaction between SOS1 and KRAS G12C (Homo sapiens, UniProt P01116, C118S/C51S/C80L/G12C).
T1 construct: His6 (N); SOS1: in-house or Viva Biotech Ltd; host or cells: E. coli (KRAS)
Kind of assay: KRAS::SOS1 AlphaScreen Binding Assay. The settings on record: Table 20, compounds (I); 7.5 nM KRAS G12C, 10 μM GDP, 5 nM GST-SOS1. From the text: This assay can be used to examine the potency with which compounds according to the invention binding to KRAS G12C inhibit the protein-protein interaction between SOS1 and KRAS G12C. […] Low IC50 values in this assay setting are indicative of strong inhibition of protein-protein interaction between SOS1 and KRAS:
• GST-tagged SOS1 (564_1049_GST_TEV_ECO) produced in-house • GST-TEV-SOS1 (564-1049) is purchased from Viva Biotech Ltd. • The expression construct of KRAS G12C (amino acids 1-169 of reference sequence P01116-2 (uniprot), with additional mutations: C51S, C80L, and C118S) containing a C-terminal avi-tag was obtained by gene synthesis (GeneArt, Thermo Fisher) in donor vector (pDONR-221) and transferred by recombinant cloning into pDEST17 vector bearing an N-terminal His6-tag. The protein was expressed in E. coli and the purified protein was biotinylated with the E. coli biotin ligase (BirA) before usage. • GDP (Sigma Cat No G7127) • AlphaLISA Glutathione Acceptor Beads (PerkinElmer, Cat No AL109) • AlphaScreen Streptavidin Donor Beads (PerkinElmer Cat No 6760002) • Assay plates: Proxiplate-384 PLUS, white (PerkinElmer, Cat No 6008289)
7.5 nM (final assay concentration) KRAS G12C, 10 μM (final assay concentration) GDP and 5 nM (final assay concentration) GST-SOS1 are mixed in assay buffer prior to use and kept at room temperature.
AlphaLISA Glutathione Acceptor Beads and AlphaScreen Streptavidin Donor Beads are mixed in assay buffer at a concentration of 10 μg/mL (final assay concentration) each prior to use and kept at room temperature.
Compounds are diluted to a final start concentration of 100 μM and are tested in duplicate. Assay-ready plates (ARPs) are generated using an Access Labcyte Workstation with a Labcyte Echo 550 or 555 acoustic dispenser. For compound a start concentration of 100 μM, 150 nL of compound solution is transferred per well in 11 concentrations in duplicate with serial 1:5 dilutions.
The assay is run using a fully automated robotic system in a darkened room below 100 Lux. 10 μL of KRAS::SOS1 GDP mix is added into columns 1-24 to the 150 nL of compound solution (final dilution in the assay 1:100, final DMSO concentration 1%).
After 30 minutes incubation time 5 μL of bead mix is added into columns 1-23. Plates are kept at room temperature in a darkened incubator. After further 60 minutes incubation, the signal is measured using a PerkinElmer Envision HTS Multilabel Reader using the AlphaScreen specifications from PerkinElmer. Each plate contains the following controls: • diluted DMSO+KRAS::SOS1 GDP mix+bead mix • diluted DMSO+KRAS::SOS1 GDP mix
IC50 values are calculated and analyzed using a 4 parametric logistic model.
Tables of example compounds disclosed herein contain IC50 values determined using the above assay.

Assay [2] relates to pERK (Thr202/Tyr204) in NCI-H358 cells (KRAS G12C mutation). The assay can be described thus: ERK phosphorylation assay (assay 1, NCI-H358). It is filed as cell-based. The settings on record: Homo sapiens; NCI-H358 (assay 1), 1 h compound incubation. An excerpt:
Low IC50 values in this assay setting are indicative of high potency of the compounds according to the invention. […]
• RPMI-1640 Medium (ATCC® 30-2001™) • Fetal Bovine Serum (FBS) from HyClone (SH30071.03) • Non-essential amino acids from Thermo Fischer Scientific (11140035) • Pyruvate from Thermo Fischer Scientific (11360039) • Glutamax from Thermo Fischer Scientific (35050061) • 384 plates from Greiner Bio-One (781182) • Proxiplate™ 384 from PerkinElmer Inc. (6008280) • AlphaLISA SureFire Ultra p-ERK1/2 (Thr202/Tyr204) Assay Kit (ALSU-PERK-A500) EGF from Sigma (E4127) • Acceptor Mix: Protein A Acceptor Beads from PerkinElmer (6760137M) • Donor Mix: AlphaScreen Streptavidin-coated Donor Beads from PerkinElmer (6760002) • Trametinib • Staurosporine from Sigma Aldrich (S6942)
Cells are seeded at 40,000 cells per well in/60 μL of RPMI with 10% FBS, non-essential amino acids, pyruvate and glutamax in Greiner TC 384 plates. The cells are incubated for 1 h at room temperature and then incubated overnight in an incubator at 37° C. and 5% CO2 in a humidified atmosphere. 60 nL compound solution (10 mM DMSO stock solution) is then added using a Labcyte Echo 550 device. After a 1 h incubation in the aforementioned incubator the medium is removed after centrifugation and the cells lysed by addition of 20 μL of 1.6-fold lysis buffer from the AlphaLISA SureFire Ultra pERK1/2 (Thr202/Tyr204) Assay Kit with added protease inhibitors, 100 nM trametinib+100 nM staurosporine. After 20 minutes of incubation at room temperature with shaking, 6 μL of each lysate sample is transferred to a 384-well Proxiplate and analyzed for pERK (Thr202/Tyr204) with the AlphaLISA SureFire Ultra pERK1/2 (Thr202/Tyr204) Assay Kit. 3 μL Acceptor Mix and 3 μL Donor Mix are added under subdued light and incubated for 2 h at room temperature in the dark, before the signal is measured on a PerkinElmer Envision HTS Multilabel Reader. The raw data were imported into and analyzed with the Boehringer Ingelheim proprietary software MegaLab (curve fitting based on the program PRISM, GraphPad Inc.).
IC50 values of representative compounds (I) according to the invention measured with this assay are presented in table 22 (IC50s from assay 2 are marked with *, all others are from assay 1).

T1 sequence (P01116 1-169 isoform P01116-2 G12C/C51S/C80L/C118S): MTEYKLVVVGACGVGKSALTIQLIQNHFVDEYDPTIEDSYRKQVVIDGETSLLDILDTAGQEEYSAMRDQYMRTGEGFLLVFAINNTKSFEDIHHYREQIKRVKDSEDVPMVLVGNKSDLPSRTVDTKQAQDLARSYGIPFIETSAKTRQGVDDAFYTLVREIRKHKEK

Take `C=C(F)C(=O)N1[C@@H](C)CN(c2cc(O[C@@H](C)[C@@H]3CCCN3C)nc(-c3onc4c3CCC[C@@]43CCCc4sc(N)c(C#N)c43)n2)C[C@@H]1C` [Ia-1]: the 50% inhibitory concentration (IC50) in assay [1] worked out at 1.6 nM; in assay [2], 8.4 nM.

In the case of `C=CC(=O)N1[C@@H](C)CN(c2cc(O[C@@H](C)[C@@H]3CCCN3C)nc(-c3onc4c3CCC[C@@]43CCCc4sc(N)c(C#N)c43)n2)C[C@@H]1C` [Ia-2], the half-maximal inhibitory concentration (IC50) was < 1.5 nM in assay [1] and 1.1 nM in assay [2].

As to `C=C(F)C(=O)N1[C@@H](C)CN(c2cc(-c3onc4c3CCC[C@@]43CCCc4sc(N)c(C#N)c43)nc(O[C@@H](C)[C@@H]3CCCN3C)n2)C[C@@H]1C` [Ia-3], the 50% inhibitory concentration (IC50) turned out to be 4 nM in assay [1] and 16.4 nM in assay [2].

Turning to `C=CC(=O)N1[C@@H](C)CN(c2cc(-c3onc4c3CCC[C@@]43CCCc4sc(N)c(C#N)c43)nc(O[C@@H](C)[C@@H]3CCCN3C)n2)C[C@@H]1C` [Ia-4], in assay [1], the half-inhibitory concentration (IC50) worked out at 1.6 nM.

For the compound `C[C@H](Oc1cc(N2C[C@H](C)N(C(=O)/C=C/CF)[C@@H](C)C2)nc(-c2noc3c2CCC[C@@]32CCCc3sc(N)c(C#N)c32)n1)[C@@H]1CCCN1C` [Ib-1], the IC50 came to 1.7 nM in assay [1] and 4.2 nM in assay [2].

`C=CC(=O)N1CCN(c2cc(O[C@@H](C)[C@@H]3CCCN3C)nc(-c3noc4c3CCC[C@@]43CCCc4sc(N)c(C#N)c43)n2)CC12CC2` [Ib-2]: the values for the half-inhibitory concentration (IC50) in assay [1] and in assay [2] were 1.3 nM and 1 nM, respectively.

On to `C=CC(=O)N1[C@@H](C)CN(c2cc(O[C@@H](C)[C@@H]3CCCN3C)nc(-c3noc4c3CCC[C@@]43CCCc4sc(N)c(C#N)c43)n2)C[C@@H]1C` [Ib-3], for which the IC50 worked out at 1.5 nM in assay [1] and 1.3 nM in assay [2].

On to `C=CC(=O)N1[C@@H](C)CN(c2cc(-c3noc4c3CCC[C@@]43CCCc4sc(N)c(C#N)c43)nc(O[C@@H](C)[C@@H]3CCCN3C)n2)C[C@@H]1C` [Ib-4], for which the IC50 was 1.4 nM in assay [1] and 0.4 nM in assay [2].

As to `C=C(F)C(=O)N1[C@@H](C)CN(c2cc(O[C@@H](C)[C@@H]3CCCN3C)nc(-c3noc4c3CCC[C@@]43CCCc4sc(N)c(C#N)c43)n2)C[C@@H]1C` [Ib-5], the IC50 in assay [1] amounted to 1.6 nM; in assay [2], 7.7 nM.

Regarding `C=C(F)C(=O)N1[C@@H](C)CN(c2cc(-c3noc4c3CCC[C@@]43CCCc4sc(N)c(C#N)c43)nc(O[C@@H](C)[C@@H]3CCCN3C)n2)C[C@@H]1C` [Ib-6], the figures for the IC50 in assay [1] and in assay [2] were 2.1 nM and 5.3 nM, respectively.

For the compound `C[C@H](Oc1nc(-c2noc3c2CCC[C@@]32CCCc3sc(N)c(C#N)c32)cc(N2C[C@H](C)N(C(=O)/C=C/CF)[C@@H](C)C2)n1)[C@@H]1CCCN1C` [Ib-7], the values for the IC50 in assay [1] and in assay [2] were 3.1 nM and 4.7 nM, respectively.

Regarding `C[C@H](Oc1nc(-c2noc3c2CCC[C@@]32CCCc3sc(N)c(C#N)c32)cc(N2C[C@H](C)N(C(=O)/C=C/c3cccnc3)[C@@H](C)C2)n1)[C@@H]1CCCN1C` [Ib-8], the half-maximal inhibitory concentration (IC50) in assay [1] was 3.2 nM; in assay [2] it was 26.9 nM.

On to `COC/C=C/C(=O)N1[C@@H](C)CN(c2cc(-c3noc4c3CCC[C@@]43CCCc4sc(N)c(C#N)c43)nc(O[C@@H](C)[C@@H]3CCCN3C)n2)C[C@@H]1C` [Ib-9], for which the IC50 was found to be 6.2 nM in assay [1] and 373 nM in assay [2].
